According to patent publication US10251845B2, “Fatty acid cysteamine conjugates and their use as activators of autophagy” (Catabasis Pharmaceuticals, Inc., priority 2014, dated 2019):
Like-named read-outs stand apart in the source and are kept apart here.

Assays:
[1] = Plasma and lung tissue drug concentration after oral dosing in mice; format: in vivo; conditions: male, C57BL/6, mouse, II-3 100 mg/kg po BID 3.5 days, one hour after the last dose
Protocol: In order to evaluate for in vivo autophagy activation, nave male C57BL/6 mice were dosed orally with compound II-3 (100 mg/kg, BID, 3.5 days). One hour after the last dose, lung tissues and plasma were collected to analyze for drug concentration and autophagy biomarkers. As discussed in earlier examples, the ratio of LC3-II to LC3-I was used as autophagy biomarker. When compound II-3 was dosed orally, the parent compound (i.e. II-3) and a major metabolite (i.e. compound I-1) was detected both in the plasma and lung tissues. One hour after the last dose, the plasma concentration of the parent compound II-3 was 143.0±52.35 ng/mL and the corresponding metabolite I-1 was 741.37±170.2 ng/mL. At this time point, the mouse lung tissue concentration of the parent compound II-3 was 536.48±24.01 ng/g. The metabolite I-1 was also detected in the lung tissues, at a concentration of 411.48±164.0 ng/g. Compound II-3 was able to induce autophagy at the given dose of 100 mg/kg and the 22% increase in the ratio of LC3-II to LC3-I in the isolated lung tissues was statistically significant (p=0.04, FIG. 12).

ΔF508 CFTR = ΔF508 CFTR (Homo sapiens, UniProt P13569, DEL508-508); test: Ussing chamber short circuit current in primary CF bronchial epithelial cells (homozygous ΔF508); format: cell-based; parameters: Primary CF cells (homozygous ΔF508, source: ChanTest, KKCFFT004I) were prepared and grown on Snapwell™ filter inserts; host or cells: primary CF bronchial epithelial cells, homozygous ΔF508; conditions: 1 μM + VX-809 (3 μM)+VX-770 (100 nM), 24 hours; for overall response, area under the curve (AUC), % of control: positive control VX-809+VX-770 = 100%
ΔF508 CFTR, sequence (P13569 with tags, fused parts or gaps DEL508-508): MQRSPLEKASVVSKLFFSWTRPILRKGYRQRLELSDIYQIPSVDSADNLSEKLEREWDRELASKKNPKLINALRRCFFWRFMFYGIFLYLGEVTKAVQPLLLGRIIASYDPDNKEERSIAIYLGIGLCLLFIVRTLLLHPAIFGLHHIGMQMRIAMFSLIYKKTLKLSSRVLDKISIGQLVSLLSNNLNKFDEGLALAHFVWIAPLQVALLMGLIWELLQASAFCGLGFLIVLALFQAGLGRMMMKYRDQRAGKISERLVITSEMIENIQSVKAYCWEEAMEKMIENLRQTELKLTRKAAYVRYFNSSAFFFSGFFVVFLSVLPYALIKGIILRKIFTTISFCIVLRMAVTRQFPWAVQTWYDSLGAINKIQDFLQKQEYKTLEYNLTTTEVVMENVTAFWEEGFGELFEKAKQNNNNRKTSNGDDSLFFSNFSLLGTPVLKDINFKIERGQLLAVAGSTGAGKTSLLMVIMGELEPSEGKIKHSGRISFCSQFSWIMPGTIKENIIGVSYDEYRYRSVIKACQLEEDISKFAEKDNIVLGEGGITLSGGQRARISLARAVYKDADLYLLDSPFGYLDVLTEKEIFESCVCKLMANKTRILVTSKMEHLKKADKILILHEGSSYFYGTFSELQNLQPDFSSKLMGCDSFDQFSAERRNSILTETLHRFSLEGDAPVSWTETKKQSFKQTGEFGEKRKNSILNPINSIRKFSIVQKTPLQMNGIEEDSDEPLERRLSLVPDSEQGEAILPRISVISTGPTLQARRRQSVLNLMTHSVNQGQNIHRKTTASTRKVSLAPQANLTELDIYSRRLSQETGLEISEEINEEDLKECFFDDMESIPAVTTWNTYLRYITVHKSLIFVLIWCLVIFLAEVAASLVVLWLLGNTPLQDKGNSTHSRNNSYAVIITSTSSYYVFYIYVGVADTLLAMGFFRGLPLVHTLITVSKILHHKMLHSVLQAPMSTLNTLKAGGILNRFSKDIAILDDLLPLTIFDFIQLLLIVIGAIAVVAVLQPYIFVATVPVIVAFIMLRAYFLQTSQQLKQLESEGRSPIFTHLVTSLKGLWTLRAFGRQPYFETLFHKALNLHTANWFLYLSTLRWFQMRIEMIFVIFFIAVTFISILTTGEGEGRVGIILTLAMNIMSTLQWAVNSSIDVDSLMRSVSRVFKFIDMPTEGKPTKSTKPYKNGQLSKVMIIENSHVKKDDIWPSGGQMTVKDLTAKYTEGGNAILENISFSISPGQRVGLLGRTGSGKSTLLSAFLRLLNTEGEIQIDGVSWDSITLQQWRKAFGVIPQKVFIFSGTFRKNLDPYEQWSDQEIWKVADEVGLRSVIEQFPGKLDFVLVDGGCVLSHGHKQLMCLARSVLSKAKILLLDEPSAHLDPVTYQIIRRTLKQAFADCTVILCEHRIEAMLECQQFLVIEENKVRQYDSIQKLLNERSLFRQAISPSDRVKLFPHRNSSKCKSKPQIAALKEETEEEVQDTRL
Protocol: Primary CF cells (homozygous ΔF508, source: ChanTest, KKCFFT004I) were prepared and grown on Snapwell™ filter inserts according to the procedures outlined in Amaral, M. D. and Kunzelmann, K. (Eds) Cystic Fibrosis, Methods in Molecular Biology 741, DOI 10.1007/978-1-61779-117-8_4 Springer Science+Business Media, LLC 2011). Primary CF cells were kept in differentiation media consisting of Dulbecco's MEM (DMEM)/F12, Ultroser-G (2.0%; Pall, Catalog #15950-017), fetal clone II (2%), insulin (2.5 μg/ml), bovine brain extract (0.25%; Lonza, Kit #CC-4133, component # CC-4092C), hydrocortisone (20 nM), triiodothyronine (500 nM), transferrin (2.5 μg/ml: Invitrogen, Catalog #0030124SA), ethanolamine (250 nM), epinephrine (1.5 μM), phosphoethanolamine (250 nM), and retinoic acid (10 nM).
The test compounds were solubilized in FBS as follows: 100 μL of a 25 mM DMSO stock solution of the test compound was diluted in 10.0 mL of FBS in a centrifuge tube to prepare an intermediate 250 μM intermediate dilution 10× stock (1% DMSO, 99% FBS). This solution was allowed to sit in the centrifuge tube at room temperature for 1 hour and then discarded; a new 250 μM 10× stock was then prepared in the conditioned centrifuge tube. This 10× stock solution was used to prepare the subsequent test article concentrations. For instance, the 25 μM concentration in 10 mL of differentiation media was prepared by adding 1000 μL of the 10× stock solution to 9000 μL of differentiation media. This 25 μM solution was allowed to sit in the centrifuge tube at room temperature for 1 hour and then discarded; and a new 25 μM solution was then prepared in the conditioned centrifuge tube. The 10 μM concentration in 10 mL of differentiation media was prepared by adding 400 μL of the 10× stock solution to 9000 μL of differentiation media and 600 μL of 1% DMSO, 99% FBS solution. The subsequent 3 and 1 μM concentrations in 10 mL of differentiation media were prepared in the same manner by adding the appropriate volume of the 10× stock solution to the differentiation media and 1% DMSO, 99% FBS solution. The same conditioning step described above was used in all the dilution steps.
To carry out the Ussing chamber assay, the test compounds, solubilized in FBS according to the procedure outlined above and diluted to the desired concentration, were then added to the individual Snapwell™ filter inserts in the differentiation media at 37° C. […]

[2] = lung tissue, parent II-3 and metabolite I-1, read-out: lung tissue concentration
[3] = plasma, parent II-3 and metabolite I-1, read-out: plasma concentration

SMILES | concentration at 1 h [1, 2] [ng/g] | concentration at 1 h [1, 3] [ng/mL] | steady state response upon Forskolin addition (ΔISC) vs positive control (ΔF508 CFTR) | overall response, area under the curve (AUC), % of control (ΔF508 CFTR) [%]
CC/C=C\C/C=C\C/C=C\C/C=C\C/C=C\C/C=C\CCC(=O)NCCSSC(C)(C)CNC(=O)c1cccnc1 [II-3, N-(2-((2-((4Z,7Z,10Z,13Z,16Z,19Z)-docosa-4,7,10,13,16,19-hexaenamido)ethyl)disulfanyl)-2-methylpropyl)nicotinamide] | 536 ± 24 | 143 ± 52.4 | functionally more active | 137.8
CC/C=C\C/C=C\C/C=C\C/C=C\C/C=C\C/C=C\CCC(=O)NCCS [I-1, (4Z,7Z,10Z,13Z,16Z,19Z)—N-(2-mercaptoethyl)docosa-4,7,10,13,16,19-hexaenamide] | 411 ± 164 | 741 ± 170 | functionally more active | 130.8
